Data as given in US12589071B2, “Suckable and/or melt-in-mouth tablet based on hyaluronic acid and chondroitin sulphate and salts thereof” (SOFAR SWISS SA, priority 2017, dated 2026).

System: patients with a first diagnosis of GERD with extraesophageal (upper) symptoms
Test: Randomised open-label clinical study, Experimental Part (II): RSI (Reflux Symptom Index) questionnaire
Assay type: in vivo, human
Text: The aim of the present study was to assess, in patients who, at the first diagnosis, presented with extraesophageal symptoms associated with gastroesophageal reflux disease (GERD), the effect of a 6-week treatment with the composition C1 comprising a chondroitin sulphate, a hyaluronic acid or a salt thereof and an aluminium hydroxide, in combination with a treatment with proton pump inhibitors (PPI) versus treatment with PPIs alone; i.e. to verify the reduction in the frequency of symptoms in patients by means of the Likert questionnaire, and the severity of upper symptoms, by means of the RSI (Reflux Symptom Index) questionnaire, and to assess Responders and Non-Responders in the two groups of patients after 6 weeks of treatment versus the baseline.
The multi-centre prospective, randomised, open-label clinical study, with two parallel arms of treatment, followed by the FU period, provided for the treatment, for 6 weeks, of 78 patients diagnosed for the first time, who presented with upper symptoms ascribable to a diagnosis of GERD, in the presence/absence of typical symptoms. The patients were thus randomly assigned, on an open-label basis, in a 1:1 ratio: • 39 patients were treated with C1+PPIs (omeprazole) for 6 weeks; and • 39 patients were treated only with a PPI (omeprazole) for 6 weeks. […]
On these occasions patients filled out the RSI questionnaire, for the assessment of the severity of symptoms, and the Likert scale, for the assessment of the reduction in the frequency of symptoms. […] In this period, only the use of omeprazole (PPI), at a constant dosage, was allowed, according to the indications of the investigator, both to the patients included in the untreated group and in the treatment group, as a rescue medication to control symptoms and safety data were assessed. […]

Compound: COc1ccc2[nH]c([S+]([O-])Cc3ncc(C)c(OC)c3C)nc2c1 (stereo not drawn) [PPI, omeprazole]
- MEAN of DELTA RSI per treatment group (V4 (6 weeks) versus baseline V1, N 28 (C1 + PPI), N 36 (PPI)): −13.69
- DELTA (RSI V4 versus RSI V1, individual subject) (after 6 weeks of treatment versus baseline, one line per subject, preliminary, listed as IPPI): −11
- RSI V4 (individual subject score) (examination V4 after 6 weeks of treatment, one line per subject, preliminary, listed as IPPI): 13
